Measurements reported in patent US20140088114A1, “FUSED BICYCLIC KINASE INHIBITORS” (OSI Pharmaceuticals ,LLC, priority 2011, published 2014).

Test system: Karpas-299 cells
Test: Karpas-299 cell proliferation assay (CellTiter-Glo)
Type: cell-based
Conditions: Homo sapiens, 72 h; Karpas-299 cell line (NPM-ALK), 3 days incubation, at least duplicate experiments; read-out: Prolif. IC50
Method: The effect of inhibitors on the proliferation of Karpas-299 cells (DSMZ no. ACC 31) was determined using the following protocol. Karpas-299 cells were plated in 96-well white tissue culture treated plates (Corning 3917) in growth medium (RPMI, 10% FCS) at a density of 5000 cells/well in a total volume of 135 μL and incubated at 37° C., 5% CO2, 95% humidity overnight. The following day, one-tenth volume of a 10× concentration of compounds was added to the wells in an 8-point dilution series. Compounds were serially diluted (1:4) in DMSO from a 10 mM stock solution prior to dilution in growth media to the 10× working concentrations (5% DMSO). Final concentration of DMSO in compound-treated wells was 0.5%. Control wells containing growth media or growth media/0.5% DMSO were included in all test plates. The typical dilution range is 10 μM to 0.1 nM. Once the compounds were added to the cells, plates were incubated for 3 days at 37° C., 5% CO2 at 95% humidity. After 72 hours, all cells and reagents were equilibrated to room temperature and 15 μL of CellTiter-Glo reagent (Promega #G7573) was added to each well. Plates were shaken on a platform for 10 minutes at room temperature prior to reading luminescence. The value of the signal of the control wells was set as 100% growth and growth inhibition was expressed as percent of control. IC50 values were determined from the percent of control data using a standard four-parameter curve fit equation.
The IC50 values of exemplary compounds of the present invention determined in a cell proliferation assay using the Karpas-299 cell line according to the procedures described herein in at least duplicate experiments are abbreviated as follows and are shown in Table 5: A, IC50≦0.03 μM; B, 0.03 μM<IC50≦0.1 μM; C, 0.1 μM<IC50≦1 μM; D, 1 μM<IC50≦3 μM; ND, not determined. The Example # of Table 5 corresponds to the compound example number as illustrated in the Examples section.
The Karpas-299 cell line has a t(2;5) chromosomal translocation and expresses the NPM-ALK fusion protein, resulting in constitutively active ALK. […] Ther. 6(12):3314-22 (2007)]. With this “ALK-driven” cell line by ALK, the cell proliferation IC50 values can thus be used as surrogate for the p-ALK cell mechanistic IC50 values.

IC50 [nM]	Compound
30 to 100	COc1ccc(F)c(Cl)c1[C@@H](CF)c1c[nH]c2ncc(-c3cnn([C@H]4CC[C@H](O)CC4)c3)cc12 [Example 3, trans-4-(4-{3-[(1S)-1-(2-chloro-3-fluoro-6-methoxyphenyl)-2-fluoroethyl]-1H-pyrrolo[2,3-b]pyridin-5-yl}-1H-pyrazol-1-yl)cyclohexanol]
≤ 30	O[C@H]1CC[C@H](n2cc(-c3cnc4[nH]cc([C@H](CF)c5c(OC(F)F)ccc(F)c5Cl)c4c3)cn2)CC1 [Example 5, trans-4-[4-(3-{(1S)-1-[2-Chloro-6-(difluoromethoxy)-3-fluorophenyl]-2-fluoroethyl}-1H-pyrrolo[2,3-b]pyridin-5-yl)-1H-pyrazol-1-yl]cyclohexanol]
100 to 1000	Cn1cc(-c2cnc3[nH]cc(C(CF)c4c(Cl)ccc(F)c4Cl)c3c2)cn1 (stereo not shown) [Example 1, 3-[1-(2,6-Dichloro-3-fluorophenyl)-2-fluoroethyl]-5-(1-methyl-1H-pyrazol-4-yl)-1H-pyrrolo[2,3-b]pyridine]
100 to 1000	O[C@H]1CC[C@H](n2cc(-c3cnc4[nH]cc([C@@H](CF)c5c(OC(F)F)ccc(F)c5Cl)c4c3)cn2)CC1 [Example 4, trans-4-[4-(3-{(1R)-1-[2-Chloro-6-(difluoromethoxy)-3-fluorophenyl]-2-fluoroethyl}-1H-pyrrolo[2,3-b]pyridin-5-yl)-1H-pyrazol-1-yl]cyclohexanol]
